Read-outs that look alike come from different tables or passages of the source.
Target: T1, recombinant human cGAS (aa147-522) (Homo sapiens, UniProt Q8N884)
T1 construct: recombinant human cGAS (aa147-522); His6-SUMO (cleaved yes); made in house; host or cells: E. coli BL21/pLys
Assay: In vitro inhibition assay of cGAS activity (ATP consumption, KinaseGlo Max)
Type: biochemical
Experimental: Expression and Purification of Recombinant cGAS Protein: cDNA encoding full-length or amino acids […] of human cGAS was inserted into a modified pET28a vector containing an in-frame His6-SUMO tag. The E. coli strain BL21/pLys harboring the plasmid was induced with 0.5 mM IPTG at 18° C. overnight. His6-SUMO tag was removed by a SUMO protease digestion following purification of the His6-SUMO-cGAS as described previously (Sun et al, 2013, Science 339, 786).
In vitro inhibition assay of cGAS activity: A 60 μL mixture containing 20 mM Tris-Cl, pH 7.5, 5 mM MgCl2, 0.2 mg/mL BSA, 0.01 mg/mL Herring testis DNA, 6.6 μM ATP, 0.1 mM GTP, 1.5 μg/mL of recombinant human cGAS (aa147-522) and serial dilutions of a test compound in DMSO was added to a 96-well plate and incubated at 37° C. for 20 minutes. At the end of reaction, 40 μL of KinaseGlo Max (Promega) was added and chemiluminescence was measured with a luminometer. Inhibitory effect of a compound is evaluated by plotting percentage of ATP consumption against logarithm of compound concentrations. IC50 value was calculated using GraphPad Prism 8 (GraphPad Software, Inc.).
The letter codes for cGAS IC50 include: A (<2 μM); B (2-30 μM); C (>30 μM).

[1] = Table 2, read-out: cGAS Inhibition Results IC50
[2] = Table 3, read-out: cGAS Inhibition Results IC50

T1 sequence (Q8N884 147-522): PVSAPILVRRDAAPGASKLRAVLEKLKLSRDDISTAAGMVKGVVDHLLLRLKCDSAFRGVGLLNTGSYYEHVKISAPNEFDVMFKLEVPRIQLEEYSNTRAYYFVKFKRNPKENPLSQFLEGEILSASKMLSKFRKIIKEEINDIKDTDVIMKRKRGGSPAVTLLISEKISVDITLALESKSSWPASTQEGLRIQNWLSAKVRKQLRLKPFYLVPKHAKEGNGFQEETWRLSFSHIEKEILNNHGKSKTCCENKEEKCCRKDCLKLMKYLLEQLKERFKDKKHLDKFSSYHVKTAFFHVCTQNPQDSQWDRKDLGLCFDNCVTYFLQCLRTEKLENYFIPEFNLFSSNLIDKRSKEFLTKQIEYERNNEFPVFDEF

Row | SMILES | IC50 [1] [µM] | IC50 [2] [µM] | also measured
1 | O=C(O)Cc1ccc(OC[C@@H]2CCCN2c2cc(-n3ccnc3)c3ccc(Cl)c(Cl)c3n2)cc1 [I-738] | – | < 2 | –
2 | O=C1NCCC1Nc1cc(-n2ccnc2)c2ccc(Cl)cc2n1 (centres unmarked) [I-367] | > 30 | – | –
3 | CC(=O)OCC(=O)N1CCOC(CNc2cc(-c3cn[nH]c3)c3ccc(Cl)c(Cl)c3n2)C1 (centres unmarked) [I-400] | 2 to 30 | – | –
4 | O=C(O)C1CCN(C(=O)[C@@H]2CCCN2c2cc(-n3ccnc3)c3ccc(Cl)c(Cl)c3n2)CC1 [I-548] | – | < 2 | –
5 | COC(=O)C[C@@H]1CCCN1c1cc(-n2ccnc2)c2ccc(Cl)c(Cl)c2c1 [I-572, methyl (S)-2-(1-(7,8-dichloro-4-(1H-imidazol-1-yl)naphthalen-2-yl)pyrrolidin-2-yl)acetate] | – | < 2 | –
6 | O=C(O)[C@@H]1C[C@H](OC(=O)N2CCOCC2)CN1c1cc(-n2ccnc2)c2ccc(Cl)c(Cl)c2n1 [I-571] | – | < 2 | –
7 | Oc1ccc(-c2cc(-n3ccnc3)c3ccc(Cl)cc3n2)cn1 [I-58] | > 30 | – | –
8 | O=C(O)CCCCCOC[C@@H]1CCCN1c1cc(-n2ccnc2)c2ccc(Cl)c(Cl)c2n1 [I-675, (S)-6-((1-(7,8-dichloro-4-(1H-imidazol-1-yl)quinolin-2-yl)pyrrolidin-2-yl)methoxy)hexanoic acid] | – | < 2 | –
9 | O=C(C[C@@H]1CCCN1c1cc(-n2ccnc2)c2ccc(Cl)c(Cl)c2n1)N[C@@H](C(=O)O)c1ccccc1 [I-388] | 2 to 30 | – | –
10 | O=C(O)c1cc(-c2cc(-n3ccnc3)c3ccc(Cl)cc3n2)ccc1OC(F)(F)F [I-18] | 2 to 30 | – | –
11 | OB(O)C1CCCN(c2cc(-n3ccnc3)c3ccc(Cl)c(Cl)c3n2)C1 (centres unmarked) [I-120, (1-(7,8-Dichloro-4-(1H-imidazol-1-yl)quinolin-2-yl)piperidin-3-yl)boronic acid] | < 2 | – | –
12 | COC(=O)[C@@H]1C[C@H](C(F)(F)F)CN1c1cc(-n2ccnc2)c2ccc(Cl)c(Cl)c2n1 [I-462] | – | 2 to 30 | –
13 | O=C(O)C1CC(O)CN(c2cc(-n3ccnc3)c3ccc(Cl)cc3n2)C1 (centres unmarked) [I-135] | > 30 | – | –
14 | NC(=O)[C@@H]1C[C@@H](O)CN1c1cc(-n2ccnc2)c2ccc(Cl)c(Cl)c2n1 [I-502] | – | 2 to 30 | –
15 | OC1CC2CCCC(C1)N2c1cc(-n2ccnc2)c2ccc(Cl)c(Cl)c2n1 (centres unmarked) [I-492] | – | 2 to 30 | –
16 | O=C(O)[C@@H]1C[C@@H](C2CCCCC2)CN1c1cc(-c2cn[nH]c2)c2ccc(Cl)c(Cl)c2n1 [I-439] | 2 to 30 | – | –
17 | CC(C)N(CCN1CCOCC1)c1cc(-c2cn[nH]c2)c2ccc(Cl)c(Cl)c2n1 [I-358] | 2 to 30 | – | –
18 | O=C(O)CNCCCc1cc(-c2cn[nH]c2)c2ccc(Cl)c(Cl)c2n1 [I-336, (3-(7,8-dichloro-4-(1H-pyrazol-4-yl)quinolin-2-yl)propyl)glycine] | 2 to 30 | – | –
19 | CC(=O)c1cn(-c2cc(-c3ccccc3)nc3cc(Cl)ccc23)cn1 [I-66] | > 30 | – | –
20 | CC(C)(C)OC(=O)NC[C@@H]1CCCN1c1cc(-n2ccnc2)c2ccc(Cl)c(Cl)c2n1 [I-152] | 2 to 30 | – | –

Row | SMILES | IC50 [1] [µM] | IC50 [2] [µM] | also measured
21 | CCOP(=O)(O)Cc1cc(-n2ccnc2)c2ccc(Cl)c(Cl)c2n1 [I-252, Ethyl hydrogen (7,8-dichloro-4-(1H-imidazol-1-yl)quinolin-2-yl)methylphosphonate] | – | – | IC50 (cGAS Inhibition Results IC50, Table 2): 2 to 30 µM
22 | O=C(O)C1CN(c2cc(-n3ccnc3)c3ccc(Cl)c(Cl)c3n2)CCN1C(=O)CO (centres unmarked) [I-83, 4-(7,8-dichloro-4-(1H-imidazol-1-yl)quinolin-2-yl)-1-(2-hydroxyacetyl)piperazine-2-carboxylic acid] | 2 to 30 | – | –
23 | O=C(O)C1CN(C(=O)C[C@@H]2CCCN2c2cc(-n3ccnc3)c3ccc(Cl)c(Cl)c3n2)CCO1 (some centres unmarked) [I-538] | – | < 2 | –
24 | Brc1ccc2nccc(-n3ccnc3)c2c1 [I-409] | > 30 | – | –
25 | Clc1ccc2c(-c3cncnc3)cc(-c3ccccc3)nc2c1 [I-71] | > 30 | – | –
26 | Fc1ccc(Cc2cc(-n3ccnc3)c3ccc(Br)cc3n2)cc1 [I-275] | > 30 | – | –
27 | O=C1CCN(c2cc(-n3ccnc3)c3ccc(Cl)c(Cl)c3n2)CCN1 [I-88] | 2 to 30 | – | –
28 | Clc1c(-n2ccnc2)cc2c(-n3ccnc3)cc(-c3ccccc3)nc2c1Cl [I-52] | > 30 | – | –
29 | O=C(O)CCNc1cc(-n2ccnc2)c2ccc(Cl)cc2n1 [I-182] | 2 to 30 | – | –
30 | COc1c(Cl)ccc2c(-c3cn[nH]c3)cc(NCCO)nc12 [I-403] | > 30 | – | –
31 | O=C(O)c1ccnn1CC[C@@H]1CCCN1c1cc(-n2ccnc2)c2ccc(Cl)c(Cl)c2n1 [I-729] | – | < 2 | –
32 | O=C(O)[C@@H]1C[C@@H](N2CCOCC2)CN1c1cc(-n2ccnc2)c2ccc(Cl)c(Cl)c2n1 [I-518] | – | < 2 | –
33 | O=C(C[C@@H]1CCCN1c1cc(-n2ccnc2)c2ccc(Cl)c(Cl)c2n1)N1CCC(c2nnn[nH]2)C1 (some centres unmarked) [I-536] | – | < 2 | –
34 | O=C(O)c1cccc(-c2cc(-n3ccnc3)c3ccc(C(F)(F)F)cc3n2)c1 [I-49, 3-(4-(1H-imidazol-1-yl)-7-(trifluoromethyl)quinolin-2-yl)benzoic acid] | > 30 | – | –
35 | COC(=O)CCO[C@@H]1CCN(c2cc(-n3ccnc3)c3ccc(Cl)c(Cl)c3n2)C1 [I-769] | – | 2 to 30 | –
36 | NC[C@@H]1CCCN1c1cc(-n2ccnc2)c2ccc(Cl)c(Cl)c2n1 [I-153, (S)-(1-(7,8-dichloro-4-(1H-imidazol-1-yl)quinolin-2-yl)pyrrolidin-2-yl)methanamine] | 2 to 30 | – | –
37 | OCC1CN(c2cc(-n3ccnc3)c3ccc(Cl)cc3n2)CCCO1 (centres unmarked) [I-99] | 2 to 30 | – | –
38 | O=C(O)CNc1cc(Cl)c2ccc(Cl)c(Cl)c2n1 [I-171] | > 30 | – | –
39 | Brc1ccc2c(-n3ccnc3)cc(-c3ccccc3)nc2c1 [I-424, 7-bromo-4-(1H-imidazol-1-yl)-2-phenylquinoline] | 2 to 30 | – | –
40 | NS(=O)(=O)CCNc1cc(-c2cn[nH]c2)c2ccc(Cl)c(F)c2n1 [I-262] | < 2 | – | –

Second part, led by results:

Row | IC50 [1] [µM] | IC50 [2] [µM] | SMILES | also measured
41 | 2 to 30 | – | COC(=O)CCS(=O)(=O)NC[C@@H]1CCCN1c1cc(-n2ccnc2)c2ccc(Cl)c(Cl)c2n1 [I-390] | –
42 | < 2 | – | CN(CCNS(C)(=O)=O)c1cc(-n2ccnc2)c2ccc(Cl)cc2n1 [I-234] | –
43 | – | < 2 | O=C(O)CCOC[C@@H]1[C@@H]2C[C@@H]2CN1c1cc(-n2ccnc2)c2ccc(Cl)c(Cl)c2n1 (stereo in doubt) [I-809] | –
44 | – | < 2 | O=C(O)[C@@H]1[C@@H](F)CCN1c1cc(-n2ccnc2)c2ccc(Cl)c(Cl)c2n1 [I-651] | –
45 | – | < 2 | CC1(C)C2[C@@H](C(=O)O)N(c3cc(-n4ccnc4)c4ccc(Cl)c(Cl)c4n3)C[C@@H]21 (some centres unmarked) [I-517] | –
46 | < 2 | – | CC(C)N(CCS(=O)(=O)O)c1cc(-n2ccnc2)c2ccc(Cl)c(Cl)c2n1 [I-165] | –
47 | – | < 2 | O=C(O)[C@@H]1CC[C@@H](CCO)N1c1cc(-n2ccnc2)c2ccc(Cl)c(Cl)c2n1 [I-783, (2S,5S)-1-(7,8-dichloro-4-(1H-imidazol-1-yl)quinolin-2-yl)-5-(2-hydroxyethyl)pyrrolidine-2-carboxylic acid] | –
48 | < 2 | – | CN(CCC(=O)NCC(=O)O)c1cc(-n2ccnc2)c2ccc(Cl)c(Cl)c2n1 [I-321] | –
49 | – | < 2 | CN(CCNS(=O)(=O)CC(=O)O)c1cc(-n2ccnc2)c2ccc(Cl)c(Cl)c2n1 [I-618] | –
50 | 2 to 30 | – | O=S(=O)(O)CNc1cc(-n2ccnc2)c2ccc(Cl)c(Cl)c2n1 [I-157] | –
51 | < 2 | – | O[C@@H]1CCN(c2cc(-n3ccnc3)c3ccc(Cl)c(Cl)c3n2)C1 [I-145] | –
52 | – | < 2 | O=C(O)CCOCC(CO)Nc1cc(-n2ccnc2)c2ccc(Cl)c(Cl)c2n1 (centres unmarked) [I-873] | –
53 | < 2 | – | CC(O)CN(C)c1cc(-n2ccnc2)c2ccc(Cl)c(Cl)c2n1 (centres unmarked) [I-243] | –
54 | < 2 | – | O=C(O)[C@@H]1[C@@H](O)CCN1c1cc(-n2ccnc2)c2ccc(Cl)c(Cl)c2n1 [I-345] | –
55 | – | 2 to 30 | O=C(O)CCOC[C@H]1CCN(c2cc(-n3ccnc3)c3ccc(Cl)c(Cl)c3n2)C1 [I-772] | –
56 | – | < 2 | C[C@@H](NC(=O)CCN(C)c1cc(-n2ccnc2)c2ccc(Cl)c(Cl)c2n1)C(=O)O [I-563] | –
57 | – | > 30 | COC(=O)C12CC(C)(CN1c1cc(-n3ccnc3)c3ccc(Cl)c(Cl)c3n1)C2 [I-580] | –
58 | – | > 30 | COC(=O)c1ccc(S(=O)(=O)NCCN(C)c2cc(-n3ccnc3)c3ccc(Cl)c(Cl)c3n2)cc1 [I-611] | –
59 | – | 2 to 30 | COC[C@@H]1CC[C@@H](C(=O)O)N1c1cc(-n2ccnc2)c2ccc(Cl)c(Cl)c2n1 [I-463] | –
60 | – | < 2 | CN(CCS(=O)(=O)NCC(=O)O)c1cc(-n2ccnc2)c2ccc(Cl)c(Cl)c2n1 [I-633] | –
61 | 2 to 30 | – | C[C@@]1(C(=O)O)CCCN1c1cc(-n2ccnc2)c2ccc(Cl)c(Cl)c2n1 [I-436] | –
62 | < 2 | – | O=C(O)CC1COCCN1c1cc(-n2ccnc2)c2ccc(Cl)c(Cl)c2n1 (centres unmarked) [I-94] | –
63 | – | > 30 | C[C@]1(C(=O)O)CCCN1c1cc(-n2ccnc2)c2ccc(Cl)c(Cl)c2n1 [I-456] | –
64 | < 2 | – | OC1(CNc2cc(-n3ccnc3)c3ccc(Cl)c(Cl)c3n2)CC1 [I-245] | –
65 | – | 2 to 30 | CN(CC(=O)NCCC(N)=O)c1cc(-n2ccnc2)c2ccc(Cl)c(Cl)c2n1 [I-568] | –
66 | < 2 | – | OCCNc1cc(-n2ccnc2)c2ccc(Cl)c(Cl)c2n1 [I-239] | –
67 | < 2 | – | CN(CCN(C)S(N)(=O)=O)c1cc(-n2ccnc2)c2ccc(Cl)c(Cl)c2n1 [I-224] | –
68 | – | 2 to 30 | CON(C)C(=O)[C@@H]1CCCN1c1cc(-n2ccnc2)c2ccc(Cl)c(Cl)c2n1 [I-542] | –
